Read-outs that look alike come from different tables or passages of the source. Marks after values point to notes of the source that are not given here. Each block holds one molecule with its values, some of them ahead of it.
Columns and labels:
rats [1] = assay: Plasma metabolite profiling (GC-MS, LC-MS) in rats dosed once daily over 28 days, treatment ratios versus control
Description: (§1) A group of each 5 male and female rats was dosed once daily with the indicated compounds (see Table 10, below for compounds, applied doses and administeration details) over 28 days.
(§2) Each dose group in the studies consisted of five rats per sex. Additional groups of each 5 male and female animals served as controls. Before starting the treatment period, animals, which were 62-64 days old when supplied, were acclimatized to the housing and environmental conditions for 7 days. All animals of the animal population were kept under the same constant temperature (20-24±3° C.) and the same constant humidity (30-70%). The animals of the animal population were fed ad libitum. The food to be used was essentially free of chemical or microbial contaminants. Drinking water was also offered ad libitum. Accordingly, the water was free of chemical and microbial contaminants as laid down in the European Drinking Water Directive 98/83/EG. The illumination period was 12 hours light followed by 12 hours darkness (12 hours light, from 6:00 to 18:00, and 12 hours darkness, from 18:00 to 6:00). The studies were performed in an AAALAC-approved laboratory in accordance with the German Animal Welfare Act and the European Council Directive 86/609/EE. The test system was arranged according to the OECD 407 guideline for the testing of chemicals for repeated dose 28-day oral toxicity study in rodents.
(§3) In the morning of day 7, 14, and 28, blood was taken from the retroorbital venous plexus from fasted anaesthetized animals. From each animal, 1 ml of blood was collected with EDTA as anticoagulant. The samples were centrifuged for generation of plasma. All plasma samples were covered with a N2 atmosphere and then stored at −80° C. until analysis.
(§4) For mass spectrometry-based metabolite profiling analyses plasma samples were extracted and a polar and a non-polar (lipid) fraction was obtained. For GC-MS analysis, the non-polar fraction was treated with methanol under acidic conditions to yield the fatty acid methyl esters. Both fractions were further derivatised with O-methyl-hydroxyamine hydrochloride and pyridine to convert Oxo-groups to O-methyloximes and subsequently with a silylating agent before analysis. In LC-MS analysis, both fractions were reconstituted in appropriate solvent mixtures. HPLC was performed by gradient elution on reversed phase separation columns. Mass spectrometric detection which allows target and high sensitivity MRM (Multiple Reaction Monitoring) profiling in parallel to a full screen analysis was applied as described in WO2003073464.
(§5) Steroids and their metabolites were measured by online SPE-LC-MS (Solid phase extraction-LC-MS).
(§6) Following comprehensive analytical validation steps, the data for each analyte were normalized against data from pool samples. These samples were run in parallel through the whole process to account for process variability. The significance of treatment group values specific for sex, treatment duration and metabolite was determined by comparing means of the treated groups to the means of the respective untreated control groups using WELCH-test and quantified with treatment ratios versus control and p-values.

rats [2] = conditions: rat, in vivo
Description: as §1, §2, §3, §4, §5, §6

[3] = female rats, day 28, high dose, Table 1a up-regulation
[4] = female rats, day 28, high dose, Table 1b down-regulation
[5] = male rats, day 28, high dose, Table 1c up-regulation
[6] = male rats, day 28, high dose, Table 1d down-regulation

Molecule: [O-][Cl+3]([O-])([O-])O [Sodium perchlorate]
Isoleucine, plasma, ratio versus control (rats [1]; male rats, day 7, high dose, Table 2a up-regulation): 0.97
Isoleucine, plasma, ratio versus control (rats [1]; male rats, day 28, high dose, Table 2a up-regulation): 1.37 *
Isoleucine, plasma, ratio versus control (rats [1]; male rats, day 28, high dose, Table 2c up-regulation): 1.37*

Molecule: O=C([O-])[O-].[Ca+2] [Calcium carbonate]
3-Hydroxybutyrate, plasma, ratio versus control (rats [2]): 1.09*
4-Hydroxyphenylpyruvate, plasma, ratio versus control (rats [2]): 0.23*
5-Oxoproline, plasma, ratio versus control (rats [2]): 0.87*
16-Methylheptadecanoic acid, plasma, ratio versus control (rats [2]): 0.66*
17-Methyloctadecanoic acid, plasma, ratio versus control (rats [2]): 0.92*
Alanine, plasma, ratio versus control (rats [2]): 0.79*
Coenzyme Q9, plasma, ratio versus control (rats [2]): 0.72*
Creatine, plasma, ratio versus control (rats [2]): 0.48*
Creatinine, plasma, ratio versus control (rats [2]): 0.43*
DAG (C18:1, C18:2), plasma, ratio versus control (rats [2]): 0.87*
Eicosaenoic acid (C20:1) No 02, plasma, ratio versus control (rats [2]): 1.3*
Glucose, plasma, ratio versus control (rats [2]): 0.93*
Glycerol, lipid fraction, plasma, ratio versus control (rats [2]): 0.66*
Heptadecanoic acid (C17:0), plasma, ratio versus control (rats [2]): 0.76*
Hippuric acid, plasma, ratio versus control (rats [2]): 0.71*
Lactate, plasma, ratio versus control (rats [2]): 0.95*
Linoleic acid (C18:cis[9, 12]2), plasma, ratio versus control (rats [2]): 0.67*
Linolenic acid (C18:cis[9, 12, 15]3), plasma, ratio versus control (rats [2]): 0.81*
Lysophosphatidylcholine (C17:0), plasma, ratio versus control (rats [2]): 0.82*
Malate, plasma, ratio versus control (rats [2]): 0.54*
Phenylalanine, plasma, ratio versus control (rats [2]): 0.93*
Phosphatidylcholine (C16:0, C16:0), plasma, ratio versus control (rats [2]): 1.06*
Phosphatidylcholine (C18:0, C20:4), plasma, ratio versus control (rats [2]): 1.02*
Pyruvate, plasma, ratio versus control (rats [2]): 0.77*
Sphingomyelin (d18:2, C16:0), plasma, ratio versus control (rats [2]): 1.11*
TAG (C18:1, C18:2), plasma, ratio versus control (rats [2]): 0.75*
TAG (C18:2, C18:2), plasma, ratio versus control (rats [2]): 0.74*
TAG (C18:2, C18:3), plasma, ratio versus control (rats [2]): 0.64*
TAG (DAG-Fragment), plasma, ratio versus control (rats [2]): 0.72*
TAG No 01, plasma, ratio versus control (rats [2]): 0.55*
TAG No 05, plasma, ratio versus control (rats [2]): 0.71*
TAG No 07, plasma, ratio versus control (rats [2]): 0.71*
TAG No 059, plasma, ratio versus control (rats [2]): 0.68*
Threonic acid, plasma, ratio versus control (rats [2]): 0.86*
Urea, plasma, ratio versus control (rats [2]): 1.15*
gamma-Linolenic acid (C18:cis[6, 9, 12]3), plasma, ratio versus control (rats [2]): 0.7*

3-Hydroxybutyrate, plasma, ratio versus control (rats [1]; [3]): 1.32*
Coenzyme Q10, plasma, ratio versus control (rats [1]; [3]): 1.03*
Eicosaenoic acid (C20:1) No 02, plasma, ratio versus control (rats [1]; [3]): 3.35*
Phosphate (inorganic and organic phosphates), plasma, ratio versus control (rats [1]; [3]): 1.31*
Phosphatidylcholine (C18:0, C20:4), plasma, ratio versus control (rats [1]; [3]): 1.05*
Sphingomyelin (d18:2, C16:0), plasma, ratio versus control (rats [1]; [3]): 1.11*
Urea, plasma, ratio versus control (rats [1]; [3]): 1.36*
myo-Inositol-2-phosphate, plasma, ratio versus control (rats [1]; [3]): 1.27*
4-Hydroxyphenylpyruvate, plasma, ratio versus control (rats [1]; [4]): 0.63*
18-Hydroxy-11-deoxycorticosterone, plasma, ratio versus control (rats [1]; [4]): 0.85*
Alanine, plasma, ratio versus control (rats [1]; [4]): 0.75*
Creatine, plasma, ratio versus control (rats [1]; [4]): 0.92*
Creatinine, plasma, ratio versus control (rats [1]; [4]): 0.58*
Glucose, plasma, ratio versus control (rats [1]; [4]): 0.95*
Lysophosphatidylcholine (C17:0), plasma, ratio versus control (rats [1]; [4]): 0.91*
Methionine, plasma, ratio versus control (rats [1]; [4]): 0.85*
Phenylalanine, plasma, ratio versus control (rats [1]; [4]): 0.88*
Threonic acid, plasma, ratio versus control (rats [1]; [4]): 0.75*
Glycine, plasma, ratio versus control (rats [1]; [5]): 0.86
Phosphate (inorganic and organic phosphates), plasma, ratio versus control (rats [1]; [5]): 1.35*
Phosphatidylcholine (C16:0, C16:0), plasma, ratio versus control (rats [1]; [5]): 1.24*
myo-Inositol-2-phosphate, plasma, ratio versus control (rats [1]; [5]): 1.41*
5-Oxoproline, plasma, ratio versus control (rats [1]; [6]): 0.94*
16-Methylheptadecanoic acid, plasma, ratio versus control (rats [1]; [6]): 0.59*
17-Methyloctadecanoic acid, plasma, ratio versus control (rats [1]; [6]): 0.65*
18-Hydroxy-11-deoxycorticosterone, plasma, ratio versus control (rats [1]; [6]): 0.24*
Alanine, plasma, ratio versus control (rats [1]; [6]): 0.78*
Coenzyme Q9, plasma, ratio versus control (rats [1]; [6]): 0.83*
Coenzyme Q10, plasma, ratio versus control (rats [1]; [6]): 0.74*
DAG (C18:1, C18:2), plasma, ratio versus control (rats [1]; [6]): 0.63*
Glycerol, lipid fraction, plasma, ratio versus control (rats [1]; [6]): 0.86*
Glycine, plasma, ratio versus control (rats [1]; [6]): 0.86*
Heptadecanoic acid (C17:0), plasma, ratio versus control (rats [1]; [6]): 0.77*
Hippuric acid, plasma, ratio versus control (rats [1]; [6]): 0.48*
Lactate, plasma, ratio versus control (rats [1]; [6]): 0.7*
Linoleic acid (C18:cis[9, 12]2), plasma, ratio versus control (rats [1]; [6]): 0.82*
Linolenic acid (C18:cis[9, 12, 15]3), plasma, ratio versus control (rats [1]; [6]): 0.61*
Malate, plasma, ratio versus control (rats [1]; [6]): 0.8*
Methionine, plasma, ratio versus control (rats [1]; [6]): 0.88*
Pyruvate, plasma, ratio versus control (rats [1]; [6]): 0.76*
TAG (C18:1, C18:2), plasma, ratio versus control (rats [1]; [6]): 0.7*
TAG (C18:2, C18:2), plasma, ratio versus control (rats [1]; [6]): 0.6*
TAG (C18:2, C18:3), plasma, ratio versus control (rats [1]; [6]): 0.78*
TAG (DAG-Fragment), plasma, ratio versus control (rats [1]; [6]): 0.7*
TAG No 01, plasma, ratio versus control (rats [1]; [6]): 0.66*
TAG No 05, plasma, ratio versus control (rats [1]; [6]): 0.68*
TAG No 07, plasma, ratio versus control (rats [1]; [6]): 0.78*
TAG No 059, plasma, ratio versus control (rats [1]; [6]): 0.65*
gamma-Linolenic acid (C18:cis[6, 9, 12]3), plasma, ratio versus control (rats [1]; [6]): 0.98
Molecule: Calcitonin (Salmon)
